Consider six compounds from ChEMBL document CHEMBL3045451, “Isolation and characterization of fungal inhibitors from Epichloë festucae” (2000).

In experiment [1] the test system is Cryphonectria parasitica. Kind of experiment: Fungicidal activity against Cryphonectria parasitica assessed as inhibition of fungal growth at 12.5 ug after 7 days. As to conditions: 168 h, read-out: DIZ. It is filed as functional.
Experiment [2] concerns Cryphonectria parasitica. Kind of experiment: Fungicidal activity against Cryphonectria parasitica assessed as inhibition of fungal growth at 25 ug after 7 days. It counts as functional. Particulars: 168 h, read-out: DIZ.
Experiment [3] has as its system Cryphonectria parasitica. Nature of the experiment: Fungicidal activity against Cryphonectria parasitica assessed as inhibition of fungal growth at 50 ug after 7 days. It counts as functional. As to conditions: 168 h, read-out: DIZ.
Experiment [4] relates to Cryphonectria parasitica. Nature of the experiment: Fungicidal activity against Cryphonectria parasitica assessed as inhibition of fungal growth at 100 ug after 7 days. It counts as functional. Particulars: 168 h, read-out: DIZ.
Another experiment has as its system Laetisaria fuciformis. Kind of experiment: Fungicidal activity against Laetisaria fuciformis assessed as inhibition of fungal growth at 10 to 1000 mg/L. It is filed as functional, organism-based.
The next experiment has as its system Magnaporthiopsis poae. Kind of experiment: Fungicidal activity against Magnaporthe poae assessed as inhibition of fungal growth at 10 to 1000 mg/L. It is filed as functional, organism-based.
A further experiment relates to Rhizoctonia solani. Kind of experiment: Fungicidal activity against Rhizoctonia solani assessed as inhibition of fungal growth at 10 to 1000 mg/L. It counts as functional, organism-based.

In the case of `COC(=O)c1c[nH]c2ccccc12`, the zone of inhibition at 12.5 µg/disc in the experiment with Cryphonectria parasitica [1] is 4 mm. Also, the zone of inhibition at 25 µg/disc with Cryphonectria parasitica [2] is 6 mm. Further, in the experiment with Cryphonectria parasitica [3], the zone of inhibition at 50 µg/disc worked out at 8 mm. The zone of inhibition at 100 µg/disc with Cryphonectria parasitica [4] stood at 11 mm.
`O=Cc1c[nH]c2ccccc12` [3-FORMYLINDOLE]: the zone of inhibition at 12.5 µg/disc in the experiment on Cryphonectria parasitica [1] was 7 mm. For the same compound, in the experiment with Cryphonectria parasitica [2], the zone of inhibition at 25 µg/disc was determined as 10 mm. For the same compound, the zone of inhibition at 50 µg/disc with Cryphonectria parasitica [3] stood at 13 mm. For the same compound, in the experiment on Cryphonectria parasitica [4], the zone of inhibition at 100 µg/disc was determined as 15 mm.
On the same counts, the results for `CC(C)=CCC[C@@](C)(O)[C@H]1CC[C@](C)(O)[C@@H]1C` [CYCLONERODIOL] are 0 mm, 0 mm, 0 mm and 13 mm.
`CC(=O)NC(C)=O` [DIACETAMIDE]: in the experiment with Cryphonectria parasitica [1], the zone of inhibition at 12.5 µg/disc amounted to 3 mm. Moreover, the zone of inhibition at 25 µg/disc in the experiment with Cryphonectria parasitica [2] worked out at 7 mm. Also, the zone of inhibition at 50 µg/disc in the experiment on Cryphonectria parasitica [3] came to 10 mm. For the same compound, the zone of inhibition at 100 µg/disc with Cryphonectria parasitica [4] was determined as 14 mm.
As to `O=C(O)Cc1c[nH]c2ccccc12` [INDOLE-3-ACETIC ACID], the zone of inhibition at 12.5 µg/disc in the experiment with Cryphonectria parasitica [1] was found to be 12 mm. Further, in the experiment on Cryphonectria parasitica [2], the zone of inhibition at 25 µg/disc came to 14 mm. The zone of inhibition at 50 µg/disc in the experiment with Cryphonectria parasitica [3] was determined as 16 mm. Further, the zone of inhibition at 100 µg/disc with Cryphonectria parasitica [4] was 21 mm. The “growth inhibition (GI)” value in the experiment with Laetisaria fuciformis, in the experiment with Magnaporthiopsis poae and with Rhizoctonia solani was “Dose-dependent effect” throughout.
Take `OCCc1c[nH]c2ccccc12` [TRYPTOPHOL]: the zone of inhibition at 12.5 µg/disc in the experiment with Cryphonectria parasitica [1] turned out to be 7 mm. The zone of inhibition at 25 µg/disc with Cryphonectria parasitica [2] is 9 mm. The zone of inhibition at 50 µg/disc in the experiment with Cryphonectria parasitica [3] turned out to be 11 mm. Further, the zone of inhibition at 100 µg/disc in the experiment with Cryphonectria parasitica [4] stood at 14 mm. For the same compound, the “growth inhibition (GI)” value in the experiment on Laetisaria fuciformis, with Magnaporthiopsis poae and in the experiment on Rhizoctonia solani was “Dose-dependent effect” throughout.
